Assay: Comparative stability of stored solid samples (HPLC purity, PXRD, appearance after 7 days)
Format: physicochemical
Protocol: The chemical stability data using HPLC was evaluated on samples stored at several conditions as listed in Table 6 between free base hemihydrate Form 1 and amorphous form.
HPLC Method • Column: LC\027 Agilent Poroshell 120 EC-C18 150×4.6 mm, 2.7 μm • Column Temperature: 40° C. • Autosampler Temperature: Ambient • UV wavelength: 220 nm • Injection Volume: 4.00 μL • Flow Rate: 1.5 mL/min • Mobile Phase A: 0.02% TFA in H2O • Mobile Phase B: 0.02% TFA in MeCN • Time (minutes) Solvent B [%] • 0 20 • 3 20 • 15 70 • 15.1 95 • 16 95 • 16.1 20 • 20.0 20

Row | HPLC purity (%) after 7 days (stored at 25° C./60% RH) [%] | Observations after 7 days (stored at 25° C./60% RH) | PXRD after 7 days (stored at 25° C./60% RH) | HPLC purity (%) after 7 days (stored at 40° C./75% RH) [%] | Observations after 7 days (stored at 40° C./75% RH) | PXRD after 7 days (stored at 40° C./75% RH) | HPLC purity (%) after 7 days (stored at 80° C.) [%] | Observations after 7 days (stored at 80° C.) | PXRD after 7 days (stored at 80° C.) | HPLC purity (%) after 7 days (stored at Ambient) [%] | Observations after 7 days (stored at Ambient) | PXRD after 7 days (stored at Ambient) | SMILES
1 | 82.8 | Vibrant | Amorphous | 86.7 | Vibrant | Amorphous | 54.7 | Brown | Amorphous | 71.7 | Vibrant | Amorphous | Nc1nccc(Sc2cnc(N3CCC4(CC3)Cc3ccccc3[C@H]4N)nn2)c1Cl [Amorphous, (S)-1′-(6-((2-amino-3-chloropyridin-4-yl)thio)-1,2,4-triazin-3-yl)-1,3-dihydrospiro[indene-2,4′-piperidin]-1-amine]
2 | 97.5 | Yellow | Form 1 | 97.6 | Yellow | Form 1 | 97.1 | Yellow | Form 1 | 97.1 | Yellow | Form 1 | Nc1nccc(Sc2cnc(N3CCC4(CC3)Cc3ccccc3[C@H]4N)nn2)c1Cl [Form 1, (S)-1′-(6-((2-amino-3-chloropyridin-4-yl)thio)-1,2,4-triazin-3-yl)-1,3-dihydrospiro[indene-2,4′-piperidin]-1-amine]
